Measured values from paper PMC5052559, “A fragment-based approach applied to a highly flexible target: Insights and challenges towards the inhibition of HSP70 isoforms” (Scientific Reports, 2016).

Columns and labels:
S275F HSC70-NBD = biological target: T1, S275F HSC70-NBD (Homo sapiens, UniProt P11142, S275F); assay: SPR binding to S275F HSC70-NBD mutant
T1 construct: WT HSPA8 (HSC70) residues 1 to 381; GST (N, cleaved yes); made in house; host or cells: E. coli BL21-AI (expressed as described for FL-HSP72)
Method: SPR experiments were carried out using a Biacore T200 (GE Healthcare) at 25 °C. Amine coupling chemistry was used to immobilise the HSC70 NBD domain and S275W, S275F and S275A HSC70-NBD mutant proteins on a carboxymethyl-5′-dextran (CM5) sensor chip. The chip’s surface was activated with a 10 min injection of a 1:1 mixture of 100 mM N-hydroxysuccinimide and 400 mM 1-ethyl-3-(3-dimethylaminopropyl)-carbodiimide. The HSC70 proteins (70 μg/mL in 10 mM sodium acetate, 750 μM ADP, pH 5.0) were immobilised on the surface over a 10 min injection period. The remaining activated groups on the surface were blocked with a 7 min injection of 1 M ethanolamine at pH 8.5. For all the above procedures the flow rate was maintained at 10 μL/min and a 1x phosphate buffered saline running buffer (PBS running buffer: 10 mM NaHPO4/NaH2PO4 pH 7.4, 2.7 mM KCl, 137 mM NaCl) was used during immobilisation. Approximately ~13,000 response units (RU) of protein could be routinely captured on the CM5 chip on flow cells two to four. Flow cell one was left unmodified as the reference surface. Our in-house fragment library of 1962 fragments at a stock concentration of 100 mM in 100% (v/v) was screened. SPR screening plates were prepared by dispensing of 0.1 μL of each fragment in 384-well polypropylene V-bottomed plates (Greiner) using an ECHO 550 acoustic liquid dispenser (Labcyte) followed by addition of fresh DMSO and running buffer to give a final fragment concentration of 125 μM in 5% (v/v) DMSO in an assay volume of 80 μL.
The full fragment screen was carried out against freshly immobilised WT-HSC70 NBD and the S275W and S275F HSC70-NBD mutants, using the same experimental setting as for the clean screen and a final fragment concentration of 125 μM. Injections of running buffer and of 125 μM adenosine, which was used as a positive control to monitor the health of the protein, were carried out at intervals of 35 cycles throughout the screen. In addition, a DMSO correction curve, prepared as described in the GE manual, was used to correct the effects of the solvent on signal intensity. Raw SPR data from the single point screen was processed and analysed using Pipeline Pilot version 8.0.1.500[37]. Firstly, the reported binding level for each fragment was corrected by subtraction of the buffer blank. Secondly, the values were corrected for the molecular weight of each fragment and the binding was normalised to the binding level observed for the closest adenosine control. […] However, fragments with a binding level exceeding two times the theoretical Rmax were excluded, as we considered this an indication of superstoichiometric binding. Finally, fragments showing preferred binding to wild-type HSC70-NBD versus the HSC70-NBD mutants with a blocked adenine sub pocket were identified by plotting the binding levels of the fragments to wild-type HSC70-NBD against the binding levels of the respective mutant HSC70-NBD variants and added to the primary hit list. In total this procedure yielded 54 initial fragment hits.

HSP70 = biological target: HSP70; design: method as in PMID 19256508; conditions: read-out: SPR Kd; cited from earlier work
S275W HSC70-NBD = biological target: T2, S275W HSC70-NBD (Homo sapiens, UniProt P11142, S275W); assay: SPR binding to S275W HSC70-NBD mutant
T2 construct: WT HSPA8 (HSC70) residues 1 to 381; GST (N, cleaved yes); made in house; host or cells: E. coli BL21-AI (expressed as described for FL-HSP72)
Method: (§1) SPR experiments were carried out using a Biacore T200 (GE Healthcare) at 25 °C. Amine coupling chemistry was used to immobilise the HSC70 NBD domain and S275W, S275F and S275A HSC70-NBD mutant proteins on a carboxymethyl-5′-dextran (CM5) sensor chip. The chip’s surface was activated with a 10 min injection of a 1:1 mixture of 100 mM N-hydroxysuccinimide and 400 mM 1-ethyl-3-(3-dimethylaminopropyl)-carbodiimide. […] The remaining activated groups on the surface were blocked with a 7 min injection of 1 M ethanolamine at pH 8.5. […] Flow cell one was left unmodified as the reference surface.
(§2) In addition, a DMSO correction curve, prepared as described in the GE manual, was used to correct the effects of the solvent on signal intensity. Raw SPR data from the single point screen was processed and analysed using Pipeline Pilot version 8.0.1.500[37]. Firstly, the reported binding level for each fragment was corrected by subtraction of the buffer blank.
(§3) The initial fragment hits were further investigated in a three-point concentration-response experiment against freshly immobilised WT HSC70-NBD and the S275W HSC70-NBD mutants using the same experimental protocol as for the primary screen. Compound dilutions of 50, 100 and 200 μM were generated using the ECHO 550.

HSP72 = biological target: T3, HSP72 (Homo sapiens, UniProt P0DMV8); assay: Ligand observed NMR (CPMG) binding to HSP72 with ATP competition; conditions: 0.5 mM compound, 20 µM HSP72, ± 100 µM ATP; 1D CPMG
T3 construct: 6xHis followed by HRV 3C protease site (N); made in house; host or cells: E. coli BL21-AI
Method: Ligand observed NMR experiments
NMR experiments were conducted at a 1H frequency of 500 MHz using a Bruker Avance 500 spectrometer (Bruker, […]) equipped with a 1.7 mm TXI probe. All data were acquired and processed using Bruker Topspin 3.2. The Relaxation edited 1H-NMR spectrum was acquired at 295K using the CPMG sequence with a spin-lock time of 600 ms. The water signal was suppressed using presaturation during relaxation delay (2 s) and by using the Watergate sequence subsequent to the CPMG sequence. For each spectrum 64 transients were acquired. The three samples for which spectra were collected consisted of 50 mM phosphate buffer at pH 7.5, 10% (v/v) D2O and 0.5 mM compound 30, 0.5 mM compound 30 in the presence of 20 µM HSP72, and 0.5 mM compound 30 in the presence of 20 µM HSP72 and 100 µM ATP respectively (see Figure S 8).

WT HSC70-NBD = biological target: T4, WT HSC70-NBD (Homo sapiens, UniProt P11142); assay: SPR binding to wild-type HSC70-NBD
T4 construct: WT HSPA8 (HSC70) residues 1 to 381; GST (N, cleaved yes); made in house; host or cells: E. coli BL21-AI (expressed as described for FL-HSP72)
Method: as §1, §2, §3

T2 sequence (P11142 1-381 S275W): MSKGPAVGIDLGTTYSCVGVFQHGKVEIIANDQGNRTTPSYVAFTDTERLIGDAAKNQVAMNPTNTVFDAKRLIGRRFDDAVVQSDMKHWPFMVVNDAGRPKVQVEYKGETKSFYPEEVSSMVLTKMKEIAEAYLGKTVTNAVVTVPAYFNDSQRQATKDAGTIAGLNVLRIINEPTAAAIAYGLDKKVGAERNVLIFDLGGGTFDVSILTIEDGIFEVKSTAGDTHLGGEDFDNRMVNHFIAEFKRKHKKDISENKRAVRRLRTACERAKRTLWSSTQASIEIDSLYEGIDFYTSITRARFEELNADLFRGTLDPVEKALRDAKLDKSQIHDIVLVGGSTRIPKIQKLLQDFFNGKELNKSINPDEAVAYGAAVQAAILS
T3 sequence (P0DMV8 whole entry): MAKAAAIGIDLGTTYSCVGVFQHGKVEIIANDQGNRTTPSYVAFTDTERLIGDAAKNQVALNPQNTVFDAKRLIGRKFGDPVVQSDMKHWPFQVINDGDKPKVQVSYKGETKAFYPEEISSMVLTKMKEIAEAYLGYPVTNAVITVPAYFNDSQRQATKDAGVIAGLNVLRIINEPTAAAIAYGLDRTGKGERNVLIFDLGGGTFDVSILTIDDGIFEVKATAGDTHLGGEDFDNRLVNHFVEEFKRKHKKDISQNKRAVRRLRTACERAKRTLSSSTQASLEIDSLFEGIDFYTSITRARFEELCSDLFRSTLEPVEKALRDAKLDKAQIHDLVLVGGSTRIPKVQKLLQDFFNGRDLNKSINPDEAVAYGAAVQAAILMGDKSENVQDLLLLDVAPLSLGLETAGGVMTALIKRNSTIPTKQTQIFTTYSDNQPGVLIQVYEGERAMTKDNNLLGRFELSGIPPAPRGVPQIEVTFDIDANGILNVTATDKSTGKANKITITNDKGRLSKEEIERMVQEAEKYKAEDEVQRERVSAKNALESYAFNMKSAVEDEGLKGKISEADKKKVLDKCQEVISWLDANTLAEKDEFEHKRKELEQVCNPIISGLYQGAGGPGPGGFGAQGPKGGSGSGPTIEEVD
T4 sequence (P11142 1-381): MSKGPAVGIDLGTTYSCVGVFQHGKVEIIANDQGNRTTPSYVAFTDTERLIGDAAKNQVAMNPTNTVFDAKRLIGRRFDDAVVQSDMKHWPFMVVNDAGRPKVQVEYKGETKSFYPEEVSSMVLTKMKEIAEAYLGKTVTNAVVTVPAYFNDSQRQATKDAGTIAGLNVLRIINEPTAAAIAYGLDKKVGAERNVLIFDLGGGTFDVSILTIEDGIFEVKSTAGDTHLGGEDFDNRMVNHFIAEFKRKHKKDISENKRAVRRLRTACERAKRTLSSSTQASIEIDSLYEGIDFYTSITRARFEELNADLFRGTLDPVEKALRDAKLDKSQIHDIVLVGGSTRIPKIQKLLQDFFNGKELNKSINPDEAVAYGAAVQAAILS
T1 sequence (P11142 1-381 S275F): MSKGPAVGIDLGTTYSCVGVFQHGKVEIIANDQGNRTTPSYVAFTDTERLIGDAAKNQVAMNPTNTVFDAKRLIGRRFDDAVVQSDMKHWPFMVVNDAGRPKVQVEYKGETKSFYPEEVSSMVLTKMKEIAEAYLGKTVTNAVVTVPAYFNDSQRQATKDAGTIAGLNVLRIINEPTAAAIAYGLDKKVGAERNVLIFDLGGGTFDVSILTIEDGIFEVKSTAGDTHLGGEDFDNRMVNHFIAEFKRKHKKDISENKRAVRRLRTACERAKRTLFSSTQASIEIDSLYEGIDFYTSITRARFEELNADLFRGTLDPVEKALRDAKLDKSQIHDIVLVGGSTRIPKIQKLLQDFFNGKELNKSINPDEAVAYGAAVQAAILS

| binding to S275F HSC70-NBD mutant (in words) (S275F HSC70-NBD) | binding to S275W HSC70-NBD mutant (in words) (S275W HSC70-NBD) | binding to HSP72 by ligand observed NMR (HSP72) | Kd (WT HSC70-NBD; SPR, 25 °C, mean ± standard deviation or standard error, triplicate unless marked duplicate/single) | LE (ligand efficiency) (WT HSC70-NBD; calculated using the SPR Kd on WT HSC70-NBD) | Kd S275W HSC70-NBD (S275W HSC70-NBD; single measurement) | SMILES | Kd (HSP70) |
| --- | --- | --- | --- | --- | --- | --- | --- |
| abolished binding | abolished binding | – | – | – | – | N#Cc1ccc(COC[C@H]2O[C@@H](n3c(NCc4ccc(Cl)c(Cl)c4)nc4c(N)ncnc43)[C@H](O)[C@@H]2O)cc1 [Compound 1, VER-155008] | 0.3 µM |
| – | – | bind in the ATP-binding site | 75 µM | 0.20 | No binding | OC[C@H]1C[C@@H](Nc2ncnc3cccc(OCc4ccccn4)c23)[C@H](O)[C@@H]1O [Compound 30] | – |
